Read-outs that look alike come from different tables or passages of the source.
Key:
[1] = system: hand OA participants; details: per-protocol; for Hospital Anxiety and Depression Scale Depression Mean diff (95% CI): baseline to 90 days; for Hospital Anxiety and Depression Scale Anxiety Baseline (95% CI): listed as head as printed; for Hospital Anxiety and Depression Scale Anxiety: listed as head prints only 'Anxiety'
Excerpt: Additional secondary outcomes included the Numerical Rating Scale (NRS) pain rating 0-10, the Hospital Anxiety and Depression Scale (HADS) (Bjelland et al., Journal of Psychosomatic Research. 2002; 52(2): 69-77) and pain sensitisation measures in the three treatment groups at baseline and at week 13.

[2] = system: knee OA; details: Chappell et al., Pain 2009; cited from earlier work
[3] = system: hand OA participants; details: for Side effects: Total (adverse events recorded): all systems, whole treatment group; for Participants discontinuing treatment / withdrawing because of (serious) adverse events: number of participants
Description: The safety and tolerability of these agents used in this context was secondarily explored, and pain sensitisation measures were assessed.
(§1) Participants were issued with a diary card with their medication to be completed for VAS pain rating on a daily basis. […] The protocol recommended that participants should record use of rescue medication (paracetamol up to 4 g daily) in their diary card. […] All other care was at the discretion of the treating physicians.

[4] = system: hand OA participants; details: for Consumption of rescue medication (total): paracetamol up to 4 g daily as rescue medication, per-protocol population; for Average use of paracetamol as rescue medication compared with placebo: result in words
Excerpt: as §1

[5] = system: hand OA participants; details: per-protocol; for Numerical Rating Scale (NRS) 90 days (95% CI) / Numerical Rating Scale (NRS) Baseline (95% CI): imputed data; for Numerical Rating Scale (NRS) Baseline (95% CI): scale 0-10; for Numerical Rating Scale (NRS) Mean diff (95% CI): baseline to 90 days
Excerpt: as §1
Additional secondary outcomes included the Numerical Rating Scale (NRS) pain rating 0-10, the Hospital Anxiety and Depression Scale (HADS) (Bjelland et al., Journal of Psychosomatic Research. 2002; 52(2): 69-77) and pain sensitisation measures in the three treatment groups at baseline and at week 13. Operational definitions for all end points, including time points for comparisons, were specified prospectively in the trial protocol.
(§2) The AUSCAN pain, stiffness and function outcomes are presented as means and 95% confidence intervals. Analysed between group were comparisons by the Mann Whitney U test. Baseline characteristics in each group are shown by mean values and standard deviation. […] IBM SPSS Statistics 21.0 was used for all analyses and graphs were plotted using Graphpad Prism version 6.

[6] = system: hand OA participants; details: for AUSCAN pain score 90 days (95% CI) / AUSCAN pain score Baseline (95% CI): per-protocol population; for AUSCAN pain score 90 days (95% CI) / AUSCAN pain score Baseline (95% CI) / AUSCAN function 90 days (95% CI) / AUSCAN stiffness 90 days (95% CI) / AUSCAN function Baseline (95% CI) / AUSCAN stiffness Baseline (95% CI): imputed data; for AUSCAN pain score 90 days (95% CI): pregabalin up to 300 mg, duloxetine up to 60 mg daily; for AUSCAN pain score Baseline (95% CI): 5 questions 0-100 mm, total of 500; for AUSCAN function 90 days (95% CI) / AUSCAN stiffness 90 days (95% CI) / AUSCAN function Baseline (95% CI) / AUSCAN stiffness Baseline (95% CI) / AUSCAN function Mean diff (95% CI) / AUSCAN stiffness Mean diff (95% CI) / AUSCAN pain score Mean diff (95% CI): per-protocol; for AUSCAN stiffness Baseline (95% CI): one question 0-100 mm; for AUSCAN function Mean diff (95% CI) / AUSCAN stiffness Mean diff (95% CI): baseline to 90 days; for AUSCAN pain score Mean diff (95% CI): change between baseline and 90 days (13 weeks), primary endpoint
Excerpt: Inclusion criteria: Participants were eligible for screening if they were aged 40-75 years, had hand OA diagnosed by ACR criteria (Altman et al., Arthritis and Rheumatism 1990; 33(11): 1601-10) confirmed by a rheumatologist and experiencing pain of at least 5 or above on a numerical rating scale (NRS) of 0-10. […] All participants underwent baseline hand radiography to confirm radiographic evidence of OA. The radiographic findings were used to confirm radiographic evidence of OA from ACR criteria of at least 3 joints affected, with a Kellgren-Lawrence grade (Kellgren et al., Ann Rheum Dis 1957; 16(4): 494-502) of 2 or above in at least 3 affected joints. Radiographic scoring was performed after a training session independently by 2 researchers.
Participants were issued with a diary card with their medication to be completed for VAS pain rating on a daily basis. […] The protocol recommended that participants should record use of rescue medication (paracetamol up to 4 g daily) in their diary card.
The primary end point was the Australian and Canadian Hand Osteoarthritis Index (AUSCAN) rating scale 3.1 with sub-scales for pain, which is a validated measure of hand pain, stiffness and function in clinical trials of hand OA (Bellamy et al., Arthritis Care Res (Hoboken) 2015; 67(7): 972-80). Based on IMMPACT guidelines for pain trials (Dworkin et al., Pain 2005; 113: 9-19), primary end-point data for the AUSCAN pain sub-scale was collected. The primary endpoint was change in AUSCAN pain between baseline and 13 weeks. Patient-reported symptoms were recorded in three domains and participants asked to record their scores based on symptoms ‘in the last 48 hours’. Pain reporting consists of 5 questions, rated at 0-100 mm each, for pain in the hands at rest, gripping objects, turning and squeezing objects, scoring out of a total of 500.
For secondary outcome data, the AUSCAN stiffness and function scales were recorded; there was one question for stiffness symptoms (0-100 mm) and 3 questions testing function (0-100 mm each). Additional secondary outcomes included the Numerical Rating Scale (NRS) pain rating 0-10, the Hospital Anxiety and Depression Scale (HADS) (Bjelland et al., Journal of Psychosomatic Research. 2002; 52(2): 69-77) and pain sensitisation measures in the three treatment groups at baseline and at week 13. Operational definitions for all end points, including time points for comparisons, were specified prospectively in the trial protocol.
as §2

[7] = system: primary hand OA; details: Basoki et al., Ann Rheum Dis 2015; cited from earlier work
[8] = number of adverse events recorded in treatment group

CNCC[C@H](Oc1cccc2ccccc12)c1cccs1 [Duloxetine]
Hospital Anxiety and Depression Scale Depression 90 days (95% CI) [1]: 3.8 (1.9 to 5.7)
Hospital Anxiety and Depression Scale Depression Baseline (95% CI) [1]: 4.1 (2.3 to 5.9)
Hospital Anxiety and Depression Scale Depression Mean diff (95% CI) [1]: −0.3 (−1.8 to 1.2)
Hospital Anxiety and Depression Scale Anxiety Baseline (95% CI) [1]: 4.3 (2.2 to 6.3)
Hospital Anxiety and Depression Scale Anxiety [1]: 5.6 (3.6 to 7.5)
Efficacy for pain outcomes in knee OA [2]: shown efficacy for pain outcomes in knee OA
Side effects: Total (adverse events recorded) [3]: 57
Side effects: Cardiovascular [3, 8]: 2
Side effects: Digestive [3, 8]: 18
Side effects: ENT [3, 8]: 2
Side effects: Mental [3, 8]: 9
Side effects: Nervous system, Dizziness [3, 8]: 3
Side effects: Nervous system, Dry mouth [3, 8]: 6
Side effects: Nervous system, Headaches [3, 8]: 8
Side effects: Nervous system, Sleepiness [3, 8]: 3
Side effects: Ophthalmological [3, 8]: 2
Side effects: Respiratory [3, 8]: 3
Side effects: Skin [3, 8]: 1
Participants discontinuing treatment / withdrawing because of (serious) adverse events [3]: 2
Consumption of rescue medication (total) [4]: 5 days
Average use of paracetamol as rescue medication compared with placebo [4]: much lower
Numerical Rating Scale (NRS) 90 days (95% CI) [5]: 4.3 (2.6 to 5.9)
Numerical Rating Scale (NRS) Baseline (95% CI) [5]: 6.6 (5.7 to 7.4)
Numerical Rating Scale (NRS) Mean diff (95% CI) [5]: −2.3 (−3.8 to −0.9)
Significant improvement in AUSCAN pain, stiffness or function compared with placebo ([6]; baseline to 13 weeks, result in words): Significant improvement in AUSCAN pain, stiffness or function were not observed
AUSCAN pain score 90 days (95% CI) [6]: 248.1 (162.3 to 333.9)
AUSCAN pain score Baseline (95% CI) [6]: 310.6 (254.3 to 367.0)
AUSCAN function 90 days (95% CI) [6]: 496.4 (342.4 to 650.5)
AUSCAN stiffness 90 days (95% CI) [6]: 48.3 (29.9 to 66.6)
AUSCAN function Baseline (95% CI) [6]: 598.3 (481.2 to 715.3)
AUSCAN stiffness Baseline (95% CI) [6]: 61.8 (45.8 to 77.8)
AUSCAN function Mean diff (95% CI) [6]: −101.9 (−248.4 to −44.8)
AUSCAN stiffness Mean diff (95% CI) [6]: −13.5 (26.5 to −0.6)
AUSCAN pain score Mean diff (95% CI) [6]: −62.5 (−141.6 to 16.6)
AUSCAN pain score Mean diff (95% CI) ([6]; listed as duloxetine): −62.5

CC(C)C[C@H](CN)CC(=O)O [Pregabalin, (3S)-3-(aminomethyl)-5-methylhexanoic acid]
Hospital Anxiety and Depression Scale Depression 90 days (95% CI) [1]: 4.1 (2.6 to 5.6)
Hospital Anxiety and Depression Scale Depression Baseline (95% CI) [1]: 5.1 (3.3 to 6.9)
Hospital Anxiety and Depression Scale Depression Mean diff (95% CI) [1]: −1.1 (−2.1 to −0.02)
Hospital Anxiety and Depression Scale Anxiety Baseline (95% CI) [1]: 5.2 (2.9 to 7.5)
Hospital Anxiety and Depression Scale Anxiety [1]: 6.1 (3.8 to 8.3)
Side effects: Total (adverse events recorded) [3]: 55
Side effects: Cardiovascular [3, 8]: 3
Side effects: Digestive [3, 8]: 7
Side effects: Genitourinary [3, 8]: 1
Side effects: Mental [3, 8]: 9
Side effects: Nervous system, Dizziness [3, 8]: 7
Side effects: Nervous system, Dry mouth [3, 8]: 6
Side effects: Nervous system, Headaches [3, 8]: 3
Side effects: Nervous system, Loss of balance [3, 8]: 7
Side effects: Nervous system, Sleepiness [3, 8]: 5
Side effects: Ophthalmological [3, 8]: 4
Side effects: Respiratory [3, 8]: 2
Participants discontinuing treatment / withdrawing because of (serious) adverse events [3]: 4
Consumption of rescue medication (total) [4]: 9 days
Average use of paracetamol as rescue medication compared with placebo [4]: much lower
Numerical Rating Scale (NRS) 90 days (95% CI) [5]: 3.4 (2.4 to 4.4)
Numerical Rating Scale (NRS) Baseline (95% CI) [5]: 6.1 (5.4 to 6.7)
Numerical Rating Scale (NRS) Mean diff (95% CI) [5]: −2.7 (−3.5 to −1.9)
AUSCAN pain score 90 days (95% CI) [6]: 176.5 (123.9 to 229.1)
AUSCAN pain score Baseline (95% CI) [6]: 308.5 (262.6 to 354.5)
AUSCAN function 90 days (95% CI) [6]: 362.2 (281.7 to 442.7)
AUSCAN stiffness 90 days (95% CI) [6]: 36.5 (23.0 to 49.9)
AUSCAN function Baseline (95% CI) [6]: 608.5 (541.3 to 675.7)
AUSCAN stiffness Baseline (95% CI) [6]: 59.9 (51.8 to 67.9)
AUSCAN function Mean diff (95% CI) [6]: −246.3 (−341.7 to −151.0)
AUSCAN stiffness Mean diff (95% CI) [6]: −23.4 (−35.7 to −11.1)
AUSCAN pain score Mean diff (95% CI) [6]: −132.0 (−181.1 to −82.9)
AUSCAN pain score Mean diff (95% CI) ([6]; listed as pregabalin): −132.0
Dose giving maximum analgesic and functional improvement effect (AUSCAN trajectory, FIG. 3) ([6]; result in words): maximum analgesic and functional improvement effect at the higher dose of 300 mg

CCN(CCO)CCCC(C)Nc1ccnc2cc(Cl)ccc12 (stereo not shown) [hydroxychloroquine]
Pain reduction compared to placebo in primary hand OA [7]: did not reduce pain compared to placebo
